The source made the active and inactive calls. The rule behind the calls is not given here.
Columns and labels:
Influenza A virus [1] = experiment: Antiviral activity against Influenza A virus A/WSN/1933(H1N1) infected in BALB/c mouse assessed as protection against virus-induced mortality at 10 mg/kg/day, po bid for 5 days followed by viral infection at 4 hrs post first dose measured 8 days post infection; type: functional, organism-based
Influenza A virus [2] = experiment: Antiviral activity against Influenza A virus A/WSN/1933(H1N1) infected in BALB/c mouse assessed as protection against virus-induced body weight loss at 10 mg/kg/day, po bid for 5 days followed by viral infection at 4 hrs post first dose measured 8 days post infection; type: functional, organism-based
Influenza A virus [3] = experiment: Antiviral activity against Influenza A virus A/WSN/1933(H1N1) infected in BALB/c mouse assessed as protection against virus-induced mortality at 1 mg/kg/day, po bid for 5 days followed by viral infection at 4 hrs post first dose measured after 2 to 14 days; type: functional, organism-based
Influenza A virus [4] = experiment: Antiviral activity against Influenza A virus A/WSN/1933(H1N1) infected in BALB/c mouse assessed as partial protection against virus-induced mortality at 0.1 mg/kg/day, po bid for 5 days followed by viral infection at 4 hrs post first dose measured 2 to 14 days post infection; type: functional, organism-based
Influenza A virus [5] = experiment: Antiviral activity against Influenza A virus A/WSN/1933(H1N1) infected in BALB/c mouse assessed as partial protection against virus-induced body weight loss at 0.1 mg/kg/day, po bid for 5 days followed by viral infection at 4 hrs post first dose measured 2 to 14 days post infection; type: functional, organism-based
Influenza A virus [6] = experiment: Antiviral activity against Influenza A virus A/CA/07/2009(H1N1) infected in BALB/c mouse assessed as protection against virus-induced body weight loss at 10 mg/kg/day, po bid for 5 days followed by viral infection at 4 hrs post first dose measured 2 to 14 days post infection; type: functional, organism-based; conditions: A/California/07/2009(H1N1)
Influenza A virus [7] = experiment: Antiviral activity against Influenza A virus A/CA/07/2009(H1N1) infected in BALB/c mouse assessed as protection against virus-induced body weight loss at 1 mg/kg/day, po bid for 5 days followed by viral infection at 4 hrs post first dose measured 20 days post infection; type: functional, organism-based; conditions: A/California/07/2009(H1N1)
Influenza A virus [8] = experiment: Antiviral activity against Influenza A virus A/CA/07/2009(H1N1) infected in BALB/c mouse assessed as protection against virus-induced mortality at 1 mg/kg/day, po bid for 5 days followed by viral infection at 4 hrs post first dose measured on day 20 to day 21; type: functional, organism-based; conditions: A/California/07/2009(H1N1)
Influenza A virus [9] = experiment: Antiviral activity against Influenza A virus A/CA/07/2009(H1N1) infected in BALB/c mouse assessed as protection against virus-induced mortality at 0.1 mg/kg/day, po bid for 5 days followed by viral infection at 4 hrs post first dose measured after 2 to 14 days; type: functional, organism-based; conditions: A/California/07/2009(H1N1)
Influenza A virus [10] = experiment: Antiviral activity against Influenza A virus A/CA/07/2009(H1N1) infected in BALB/c mouse assessed as protection against virus-induced body weight loss at 0.1 mg/kg/day, po bid for 5 days followed by viral infection at 4 hrs post first dose measured after 2 to 14 days; type: functional, organism-based; conditions: A/California/07/2009(H1N1)
in vivo = conditions: Sprague-Dawley, rat, po, 10 mg/kg
[11] = Drug metabolism in human liver microsomes at 3 uM after 1 hr; type: ADME, Microsome; conditions: read-out: Drug metabolism
[12] = Drug metabolism in dog liver microsomes at 3 uM after 1 hr; type: ADME, Canis lupus familiaris, Microsome; conditions: read-out: Drug metabolism
[13] = Drug metabolism in rat liver microsomes at 3 uM after 1 hr; type: ADME, Microsome; conditions: read-out: Drug metabolism
[14] = Drug excretion in Sprague-Dawley rat urine at 5 mg/kg, po; type: ADME, organism-based; set-up: dose 5 mg/kg, route oral; conditions: read-out: Drug excretion
[15] = Drug excretion in Sprague-Dawley rat feces at 5 mg/kg, po; type: ADME, organism-based; set-up: dose 5 mg/kg, route oral; conditions: faeces, read-out: Drug excretion
Neuraminidase = Neuraminidase (Influenza A virus, UniProt B4URF0)
Influenza A virus [16] = experiment: Antiviral activity against Influenza A virus A/Brisbane/10/2007(H3N2) infected in MDCK cells assessed as protection against virus-induced cytopathic effect after 48 to 72 hrs by CellTiter 96 aqueous assay; type: functional, organism-based
Influenza B virus [17] = experiment: Antiviral activity against Influenza B virus B/Florida/4/2006 infected in MDCK cells assessed as protection against virus-induced cytopathic effect after 48 to 72 hrs by CellTiter 96 aqueous assay; type: functional, cell-based; conditions: B/Florida/4/2006, MDCK
Influenza B virus [18] = experiment: Antiviral activity against Influenza B virus B/Sichuan/379/99 infected in MDCK cells assessed as protection against virus-induced cytopathic effect after 48 to 72 hrs by CellTiter 96 aqueous assay; type: functional, organism-based; conditions: B/Sichuan/379/99, MDCK
MDCK = experiment: Cytotoxicity against MDCK cells at 100 uM; type: cell-based, Canis lupus familiaris; conditions: dog
Blood [19] = experiment: Metabolic stability in human whole blood at 5 uM; type: ADME, tissue-based
[20] = Metabolic stability in dog whole blood at 5 uM; type: ADME, tissue-based, Canis lupus familiaris
Blood [21] = experiment: Metabolic stability in rat whole blood at 5 uM; type: ADME, tissue-based
Liver microsomes [22] = experiment: Metabolic stability in human liver microsomes at 3 uM; type: ADME, Microsome
Liver = experiment: Metabolic stability in dog liver microsomes at 3 uM; type: ADME, Canis lupus familiaris, Microsome
Liver microsomes [23] = experiment: Metabolic stability in rat liver microsomes at 3 uM; type: ADME, Microsome
Mus musculus [24] = experiment: Acute toxicity in CD1 mouse assessed as mortality at 750 mg/kg, iv; type: organism-based; set-up: dose 750 mg/kg, route intravenous; conditions: in vivo
Mus musculus [25] = experiment: Acute toxicity in CD1 mouse assessed as tremor at 300 to 1000 mg/kg, iv measured within 2 days; type: organism-based; set-up: dose 300-1000 mg/kg, route intravenous; conditions: in vivo, 48 h
Mus musculus [26] = experiment: Acute toxicity in CD1 mouse assessed as convulsion at 300 to 1000 mg/kg, iv measured within 2 days; type: organism-based; set-up: dose 300-1000 mg/kg, route intravenous; conditions: in vivo, 48 h
Mus musculus [27] = experiment: Acute toxicity in CD1 mouse assessed as body jerks at 300 to 1000 mg/kg, iv measured within 2 days; type: organism-based; set-up: dose 300-1000 mg/kg, route intravenous; conditions: in vivo, 48 h
Mus musculus [28] = experiment: Acute toxicity in CD1 mouse assessed as hypoactivity at 300 to 1000 mg/kg, iv measured within 2 days; type: organism-based; set-up: dose 300-1000 mg/kg, route intravenous; conditions: in vivo, 48 h
Mus musculus [29] = experiment: Acute toxicity in CD1 mouse assessed as hunched posture at 300 to 1000 mg/kg, iv measured within 2 days; type: organism-based; set-up: dose 300-1000 mg/kg, route intravenous; conditions: in vivo, 48 h
Mus musculus [30] = experiment: Acute toxicity in CD1 mouse assessed as piloerection at 300 to 1000 mg/kg, iv measured within 2 days; type: organism-based; set-up: dose 300-1000 mg/kg, route intravenous; conditions: in vivo, 48 h
Mus musculus [31] = experiment: Acute toxicity in CD1 mouse assessed as lesions at 300 to 1000 mg/kg, iv after 15 days by necropsy analysis; type: organism-based; set-up: dose 300-1000 mg/kg, route intravenous; conditions: in vivo, 360 h
Mus musculus [32] = experiment: Acute toxicity in CD1 mouse assessed as mortality at 2000 mg/kg, ip; type: organism-based; set-up: dose 2000 mg/kg, route intraperitoneal; conditions: in vivo
Mus musculus [33] = experiment: Acute toxicity in CD1 mouse assessed as tremor at 300 to 2000 mg/kg, ip measured within 2 days; type: organism-based; set-up: dose 300-2000 mg/kg, route intraperitoneal; conditions: in vivo, 48 h
Mus musculus [34] = experiment: Acute toxicity in CD1 mouse assessed as convulsion at 300 to 2000 mg/kg, ip measured within 2 days; type: organism-based; set-up: dose 300-2000 mg/kg, route intraperitoneal; conditions: in vivo, 48 h
Mus musculus [35] = experiment: Acute toxicity in CD1 mouse assessed as body jerks at 300 to 2000 mg/kg, ip measured within 2 days; type: organism-based; set-up: dose 300-2000 mg/kg, route intraperitoneal; conditions: in vivo, 48 h
Mus musculus [36] = experiment: Acute toxicity in CD1 mouse assessed as hypoactivity at 300 to 2000 mg/kg, ip measured within 2 days; type: organism-based; set-up: dose 300-2000 mg/kg, route intraperitoneal; conditions: in vivo, 48 h
Mus musculus [37] = experiment: Acute toxicity in CD1 mouse assessed as hunched posture at 300 to 2000 mg/kg, ip measured within 2 days; type: organism-based; set-up: dose 300-2000 mg/kg, route intraperitoneal; conditions: in vivo, 48 h
Mus musculus [38] = experiment: Acute toxicity in CD1 mouse assessed as piloerection at 300 to 2000 mg/kg, ip measured within 2 days; type: organism-based; set-up: dose 300-2000 mg/kg, route intraperitoneal; conditions: in vivo, 48 h
Mus musculus [39] = experiment: Acute toxicity in CD1 mouse assessed as lesions at 300 to 2000 mg/kg, ip after 15 days by necropsy analysis; type: organism-based; set-up: dose 300-2000 mg/kg, route intraperitoneal; conditions: in vivo, 360 h
Plasma = experiment: Plasma concentration in Sprague-Dawley rat at 1 mg/kg, po; type: ADME, organism-based; set-up: dose 1 mg/kg, route oral; conditions: in vivo, BLD = below limit of detection

Neuraminidase, sequence (B4URF0 whole entry): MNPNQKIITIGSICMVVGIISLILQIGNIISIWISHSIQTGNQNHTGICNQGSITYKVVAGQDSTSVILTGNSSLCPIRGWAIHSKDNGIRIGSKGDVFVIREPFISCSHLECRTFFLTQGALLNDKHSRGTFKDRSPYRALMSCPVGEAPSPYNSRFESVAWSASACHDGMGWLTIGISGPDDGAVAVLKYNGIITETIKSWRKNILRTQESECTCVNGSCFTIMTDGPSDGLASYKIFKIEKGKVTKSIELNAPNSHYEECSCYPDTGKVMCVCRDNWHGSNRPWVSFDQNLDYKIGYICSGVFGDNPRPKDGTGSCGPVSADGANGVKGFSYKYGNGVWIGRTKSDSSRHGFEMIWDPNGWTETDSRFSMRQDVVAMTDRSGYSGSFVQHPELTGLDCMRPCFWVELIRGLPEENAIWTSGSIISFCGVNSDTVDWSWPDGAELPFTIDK

CCOP(=O)(O)C1=C[C@@H](OC(CC)CC)[C@H](NC(C)=O)[C@@H](NC(=N)N)C1 [TAMIPHOSPHOR MONOETHYL ESTER]
Activity (Influenza A virus [1]): Active | Activity (Influenza A virus [2]): Active | Activity (Influenza A virus [3]): Active | Activity (Influenza A virus [4]): Active | Activity (Influenza A virus [5]): Active | Activity (Influenza A virus [6]): Active | Activity (Influenza A virus [7]): inactive | Activity (Influenza A virus [8]): inactive | Activity (Influenza A virus [9]): inactive | Activity (Influenza A virus [10]): inactive

CC(=O)N[C@H]1[C@H]([C@H](O)[C@H](O)CO)OC(C(=O)O)=C[C@@H]1N=C(N)N [ZANAMIVIR]
bioavailability (in vivo): 3.7%

CCOP(=O)(OCC)C1=C[C@@H](OC(CC)CC)[C@H](NC(C)=O)[C@@H](N)C1
Activity (Influenza A virus [1]): inactive | Activity (Influenza A virus [2]): inactive | Activity (Influenza A virus [3]): Active

C[C@]12CC[C@H]3[C@@H](CCC4=CC(=O)CC[C@@]43C)[C@@H]1CC[C@@H]2O [TESTOSTERONE]
metabolised at 1 h, 3 µM [11]: 65% | metabolised at 1 h, 3 µM [12]: 65% | metabolised at 1 h, 3 µM [13]: 65%

CCC(CC)O[C@@H]1C=C(P(=O)(O)O)C[C@H](NC(=N)N)[C@H]1NC(C)=O
dose excreted [14]: 1.5% | dose excreted [15]: 43.2% | IC50 (Neuraminidase): 0.0003 µM | EC50 (Influenza A virus [16]): > 10 µM | EC50 (Influenza B virus [17]): > 10 µM | EC50 (Influenza B virus [18]): > 10 µM | Activity (MDCK): Non-toxic | Stability (Blood [19]): Unstable | Stability [20]: Unstable | Stability (Blood [21]): Unstable | Stability (Liver microsomes [22]): Unstable | Stability (Liver): Unstable | Stability (Liver microsomes [23]): Unstable | Activity (Influenza A virus [1]): Active | Activity (Influenza A virus [2]): Active | Activity (Influenza A virus [3]): Active | Activity (Influenza A virus [6]): Active | Activity (Influenza A virus [7]): inactive | Activity (Influenza A virus [8]): inactive | Activity (Influenza A virus [9]): inactive | Activity (Influenza A virus [10]): inactive

Cc1ncc2n1-c1ccc(Cl)cc1C(c1ccccc1F)=NC2 [MIDAZOLAM]
metabolised at 1 h, 3 µM [11]: 65% | metabolised at 1 h, 3 µM [12]: 65% | metabolised at 1 h, 3 µM [13]: 65%

CCC(CC)O[C@@H]1C=C(P(=O)(O)O)C[C@H](N)[C@H]1NC(C)=O [TAMIPHOSPHOR]
Activity (Mus musculus [24]): Toxic | Activity (Mus musculus [25]): Non-toxic | Activity (Mus musculus [26]): Non-toxic | Activity (Mus musculus [27]): Non-toxic | Activity (Mus musculus [28]): Non-toxic | Activity (Mus musculus [29]): Non-toxic | Activity (Mus musculus [30]): Non-toxic | Activity (Mus musculus [31]): Non-toxic | IC50 (Neuraminidase): 0.0018 µM | EC50 (Influenza A virus [16]): > 10 µM | Activity (MDCK): Non-toxic | Activity (Influenza A virus [1]): Active | Activity (Influenza A virus [2]): Active | Activity (Influenza A virus [3]): Active

CCOP(=O)(O)C1=C[C@@H](OC(CC)CC)[C@H](NC(C)=O)[C@@H](N)C1 [TAMIPHOSPHOR MONOETHYL ESTER]
Activity (Mus musculus [32]): Toxic | Activity (Mus musculus [33]): Non-toxic | Activity (Mus musculus [34]): Non-toxic | Activity (Mus musculus [35]): Non-toxic | Activity (Mus musculus [36]): Non-toxic | Activity (Mus musculus [37]): Non-toxic | Activity (Mus musculus [38]): Non-toxic | Activity (Mus musculus [39]): Non-toxic | Cp (Plasma): BLD | EC50 (Influenza A virus [16]): > 10 µM | Activity (MDCK): Non-toxic | Activity (Influenza A virus [1]): Active | Activity (Influenza A virus [2]): Active | Activity (Influenza A virus [3]): Active | Activity (Influenza A virus [4]): Active | Activity (Influenza A virus [5]): Active

— ChEMBL document CHEMBL2203066 (J Med Chem, 2012)
